Laboratory results from US7223754B2, “Thiazolidinone, oxazolidinone, and imidazolone derivatives for treating lower urinary tract and related disorders” (Dynogen Pharmaceuticals, Inc., priority 2003, dated 2007).

Experiments:
HVA calcium channels = format: cell-based, rat; conditions: n=4; 1 µM
[1] = system: Female Sprague-Dawley rats; conditions: rat, in vivo

## Omega-conotoxin GVIA
HVA calcium channels
  calcium current amplitudes, % of control amplitudes: 72.8±1.6%

## ω-Conotoxin MVIIA
[1]
  bladder capacity versus irritation control, Dunn's MCT: significantly different than irritation control
  directly measured bladder capacity, % of control values: 69%
  effects on other micturition parameters, such as voiding efficiency: no untoward effects on other micturition parameters
  intermicturition interval versus irritation control (AA/Veh 3), Dunn's multiple comparison test: significantly different than irritation control
  intermicturition interval, % of pre-irritation control values: 81%
